# Patent US12264173B2 (GILEAD SCIENCES, INC., priority 2020, dated 2025)
# Where two headings read alike, the source gives them in different places.
# Assays:
# Type in all cases: cell-based
# RSV strain A2 = assay: microbe, parasite or virus in culture; conditions: Table 3, HEp-2 cells, RSV A2, 4 days, read-out: RSV HEp-2 EC50
# In short: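 Cytopathic-effect protection assay: HEp-2 cells (50,000/mL) infected with pre-titered RSV A2 onto 3-fold serial compound dilutions, incubated 4 days at 37° C. Cell viability read by CellTiter-Glo luminescence; percent inhibition derived against 0% and 100% virus-inhibition controls.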
# DENV2 replicon = assay: DENV-2 Huh-7 Rep EC50 (replicon luminescence); conditions: read-out: DENV-2 REP Huh7 EC50
# In short: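 Huh-7 cells carrying a DENV2 replicon, 5,000 cells/well, were incubated with dosed compounds for 48 h at 37° C. EnduRen live-cell substrate was added 1.5 h before luminescence reading. EC50 came from dose-response against DMSO-only wells.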
# HRV16 = HRV16 HeLa EC50 (cytopathic effect in H1-HeLa cells)
# In short: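 H1-HeLa cells seeded one day before, given 3-fold serial compound dilutions in triplicate just prior to infection with pre-titrated virus. Incubated 96 h at 33 °C/5% CO2; protection from cytopathic effect read as viability by CellTiter-Glo luminescence, normalised to infected untreated (0%) and uninfected (100%) controls.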
# RSV A2 = assay: RSV NHBE EC50 (RSV A2 antiviral assay in NHBE cells); conditions: Table 3, NHBE cells, RSV A2, 4 days, read-out: RSV NHBE EC50
# In short: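 NHBE cells (7,500/well, passage ≤6) given 3-fold serially diluted compound (0.05% DMSO final), then infected with RSV A2 at 1×10^4.5 tissue culture infectious doses/mL. After 4 days at 37 °C, viability measured by CellTiter-Glo luminescence at 25 °C.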
# [1] = Table 3, Huh-7 DENV2 replicon cells, 48 hours
# [2] = Table 3; H1-HeLa cells, 96 h; read-out: HRV16 HeLa EC50
# [3] = human respiratory syncytial virus, HEp-2, 96 h
# [4] = Dengue virus, DENV2, Huh-7, 48 h
# [5] = 96 h, Table 3; H1-HeLa cells, 96 h; read-out: HRV16 HeLa EC50
# [6] = human respiratory syncytial virus, NHBE, 96 h
structure (smiles),measurement,setting,value
"CC(=O)O[C@H]1[C@H](c2ccc3c(N)ncnn23)O[C@](C#N)(COP(=O)(N[C@@H](C)C(=O)OC2CCC2)Oc2ccccc2)[C@H]1OC(C)=O (stereo partly drawn) [Example 198, (2R,3S,4S,5S)-5-(4-aminopyrrolo[2,1-f][1,2,4]triazin-7-yl)-2-cyano-2-((((((S)-1-cyclobutoxy-1-oxopropan-2-yl)amino)(phenoxy)phosphoryl)oxy)methyl) tetrahydrofuran-3,4-diyl diacetate]",EC50,RSV strain A2,48 nM
same,EC50,DENV2 replicon; [1],6620 nM
same,EC50,HRV16; [2],319 nM
same,EC50,RSV A2,37 nM
"CCC(=O)O[C@H]1[C@H](c2ccc3c(N)ncnn23)O[C@](C#N)(COP(=O)(N[C@@H](C)C(=O)OC2CCN(CC)CC2(F)F)Oc2ccccc2)[C@H]1OC(=O)CC (stereo partly drawn) [Example 135, (2R,3S,4S,5S)-5-(4-Aminopyrrolo[2,1-f][1,2,4]triazin-7-yl)-2-cyano-2-((((((2S)-1-((1-ethyl-3,3-difluoropiperidin-4-yl)oxy)-1-oxopropan-2-yl)amino)(phenoxy)phosphoryl)oxy)methyl)tetrahydrofuran-3,4-diyl dipropionate]",EC50,RSV strain A2; [3],738 nM
same,EC50,DENV2 replicon; [4],30600 nM
same,EC50,HRV16; [5],1080 nM
same,EC50,RSV A2; [6],33 nM
"CC(C)[C@H](N)C(=O)O[C@H]1[C@H](c2ccc3c(N)ncnn23)O[C@](C#N)(CO[P@@](=O)(N[C@@H](C)C(=O)OC2CCCCC2)Oc2ccccc2)[C@H]1OC(=O)[C@@H](N)C(C)C [Example 122, (2R,3S,4S,5S)-5-(4-aminopyrrolo[2,1-f][1,2,4]triazin-7-yl)-2-cyano-2-((((S)-(((S)-1-(cyclohexyloxy)-1-oxopropan-2-yl)amino)(phenoxy)phosphoryl)oxy)methyl)tetrahydrofuran-3,4-diyl (2S,2'S)-bis(2-amino-3-methylbutanoate)]",EC50,RSV strain A2; [3],79 nM
same,EC50,DENV2 replicon; [4],5540 nM
same,EC50,HRV16; [5],301 nM
same,EC50,RSV A2; [6],90 nM
"COC(=O)[C@H](C)NP(=O)(OC[C@@]1(C#N)O[C@@H](c2ccc3c(N)ncnn23)[C@H](OC(C)=O)[C@@H]1OC(C)=O)Oc1ccccc1 (stereo partly drawn) [Example 129, (2R,3S,4S,5S)-5-(4-aminopyrrolo[2,1-f][1,2,4]triazin-7-yl)-2-cyano-2-((((((S)-1-methoxy-1-oxopropan-2-yl)amino)(phenoxy)phosphoryl)oxy)methyl)tetrahydrofuran-3,4-diyl diacetate]",EC50,RSV strain A2; [3],154 nM
same,EC50,DENV2 replicon; [4],15500 nM
same,EC50,HRV16; [5],1110 nM
same,EC50,RSV A2; [6],77 nM
"CCC(=O)OC1C(c2ccc3c(N)ncnn23)OC(C#N)(COP(=O)(NC(C)C(=O)OCC2COC2)Oc2ccccc2)C1OC(=O)CC (single isomer, unassigned) [Example 205]",EC50,RSV strain A2,164 nM
same,EC50,DENV2 replicon; [1],19000 nM
same,EC50,HRV16; [2],286 nM
same,EC50,RSV A2,21 nM
"CC(=O)O[C@H]1[C@H](c2ccc3c(N)ncnn23)O[C@](C#N)(COP(=O)(N[C@@H](C)C(=O)OCc2ccccc2)Oc2ccccc2)[C@H]1OC(C)=O (stereo partly drawn) [Example 126, (2R,3S,4S,5S)-5-(4-aminopyrrolo[2,1-f][1,2,4]triazin-7-yl)-2-((((((S)-1-(benzyloxy)-1-oxopropan-2-yl)amino)(phenoxy)phosphoryl)oxy)methyl)-2-cyanotetrahydrofuran-3,4-diyl diacetate]",EC50,RSV strain A2; [3],121 nM
same,EC50,DENV2 replicon; [4],16000 nM
same,EC50,HRV16; [5],514 nM
same,EC50,RSV A2; [6],45 nM
CC(=O)O[C@H]1[C@H](c2ccc3c(N)ncnn23)O[C@](C#N)(CO[P@](=O)(N[C@@H](C)C(=O)OCC2CCC2)Oc2ccccc2)[C@H]1OC(C)=O [Example 96],EC50,RSV strain A2,63 nM
same,EC50,DENV2 replicon; [1],16800 nM
same,EC50,HRV16; [2],417 nM
same,EC50,RSV A2,20 nM
"C[C@H](NP(=O)(OC[C@@]1(C#N)O[C@@H](c2ccc3c(N)ncnn23)[C@H](OC(=O)C(C)(C)C)[C@@H]1OC(=O)C(C)(C)C)Oc1ccccc1)C(=O)OC1COC1 (stereo partly drawn) [Example 206, (2R,3S,4S,5S)-5-(4-aminopyrrolo[2,1-f][1,2,4]triazin-7-yl)-2-cyano-2-((((((S)-1-(oxetan-3-yloxy)-1-oxopropan-2-yl)amino)(phenoxy)phosphoryl)oxy)methyl) tetrahydrofuran-3,4-diyl bis(2,2-dimethylpropanoate)]",EC50,RSV strain A2; [3],338 nM
same,EC50,DENV2 replicon; [4],7590 nM
same,EC50,HRV16; [5],308 nM
same,EC50,RSV A2; [6],36 nM
"CC(C)C(=O)OC1C(c2ccc3c(N)ncnn23)OC(C#N)(COP(=O)(NC(C)C(=O)OCC2CCC(N)CC2)Oc2ccccc2)C1OC(=O)C(C)C (single isomer, unassigned) [Example 208]",EC50,RSV strain A2,2120 nM
same,EC50,DENV2 replicon; [1],> 50000 nM
same,EC50,HRV16; [2],15200 nM
same,EC50,RSV A2,215 nM
"CC(C)CCC(=O)O[C@H]1[C@H](c2ccc3c(N)ncnn23)O[C@](C#N)(CO[P@@](=O)(N[C@@H](C)C(=O)OC2CCCCC2)Oc2ccccc2)[C@H]1OC(=O)CCC(C)C [Example 78, (2R,3S,4S,5S)-5-(4-aminopyrrolo[2,1-f][1,2,4]triazin-7-yl)-2-cyano-2-((((S)-(((S)-1-(cyclohexyloxy)-1-oxopropan-2-yl)amino)(phenoxy)phosphoryl)oxy)methyl) tetrahydrofuran-3,4-diyl bis(4-methylpentanoate)]",EC50,RSV strain A2; [3],1350 nM
same,EC50,DENV2 replicon; [4],31800 nM
same,EC50,HRV16; [5],6520 nM
same,EC50,RSV A2; [6],710 nM
"CC(C)OC(=O)[C@H](C)N[P@](=O)(OC[C@@]1(C#N)O[C@@H](c2ccc3c(N)ncnn23)[C@H](OC(=O)CN2CCOCC2)[C@@H]1OC(=O)CN1CCOCC1)Oc1ccccc1 [Example 216, (2R,3S,4S,5S)-5-(4-aminopyrrolo[2,1-f][1,2,4]triazin-7-yl)-2-cyano-2-((((S)-(((S)-1-isopropoxy-1-oxopropan-2-yl)amino)(phenoxy)phosphoryl)oxy)methyl) tetrahydrofuran-3,4-diyl bis(2-morpholinoacetate)]",EC50,RSV strain A2; [3],262 nM
same,EC50,DENV2 replicon; [4],31200 nM
same,EC50,HRV16; [5],3500 nM
same,EC50,RSV A2; [6],3870 nM
"CC(C)OC(=O)[C@H](C)N[P@](=O)(OC[C@@]1(C#N)O[C@@H](c2ccc3c(N)ncnn23)[C@H](OC(=O)[C@@H](N)C(C)C)[C@@H]1OC(=O)[C@@H](N)C(C)C)Oc1ccccc1 [Example 157, (2R,3S,4S,5S)-5-(4-aminopyrrolo[2,1-f][1,2,4]triazin-7-yl)-2-cyano-2-((((S)-(((S)-1-isopropoxy-1-oxopropan-2-yl)amino)(phenoxy)phosphoryl)oxy)methyl)tetrahydrofuran-3,4-diyl (2S,2'S)-bis(2-amino-3-methylbutanoate)]",EC50,RSV strain A2; [3],227 nM
same,EC50,DENV2 replicon; [4],25800 nM
same,EC50,HRV16; [5],1790 nM
same,EC50,RSV A2; [6],1590 nM
CCC(=O)O[C@H]1[C@H](c2ccc3c(N)ncnn23)O[C@](C#N)(CO[P@@](=O)(N[C@@H](C)C(=O)OCC2CCOCC2)Oc2ccccc2)[C@H]1OC(=O)CC [Example 108],EC50,RSV strain A2,217 nM
same,EC50,DENV2 replicon; [1],39300 nM
same,EC50,HRV16; [2],385 nM
same,EC50,RSV A2,6 nM
"CCCOC(=O)[C@H](C)NP(=O)(OC[C@@]1(C#N)O[C@@H](c2ccc3c(N)ncnn23)[C@H](OC(=O)CC)[C@@H]1OC(=O)CC)Oc1ccccc1 (single isomer, unassigned) [Example 188]",EC50,RSV strain A2,31 nM
same,EC50,DENV2 replicon; [1],6920 nM
same,EC50,HRV16; [2],102 nM
same,EC50,RSV A2,28 nM
"CC(C)C(=O)O[C@H]1[C@H](c2ccc3c(N)ncnn23)O[C@](C#N)(COP(=O)(N[C@@H](C)C(=O)OCC2COC2)Oc2ccccc2)[C@H]1OC(=O)C(C)C (stereo partly drawn) [Example 200, (2R,3S,4S,5S)-5-(4-aminopyrrolo[2,1-f][1,2,4]triazin-7-yl)-2-cyano-2-((((((S)-1-(oxetan-3-ylmethoxy)-1-oxopropan-2-yl)amino)(phenoxy)phosphoryl)oxy)methyl) tetrahydrofuran-3,4-diyl bis(2-methylpropanoate)]",EC50,RSV strain A2; [3],58 nM
same,EC50,DENV2 replicon; [4],2180 nM
same,EC50,HRV16; [5],120 nM
same,EC50,RSV A2; [6],12 nM
"COC(=O)[C@H](C)N[P@@](=O)(OC[C@@]1(C#N)O[C@@H](c2ccc3c(N)ncnn23)[C@H](OC(C)=O)[C@@H]1OC(C)=O)Oc1ccccc1 (single isomer, unassigned) [Example 130]",EC50,RSV strain A2; [3],198 nM
same,EC50,DENV2 replicon; [4],21000 nM
same,EC50,HRV16; [5],1780 nM
same,EC50,RSV A2; [6],59 nM
"CCC(=O)O[C@H]1[C@H](c2ccc3c(N)ncnn23)O[C@](C#N)(COP(=O)(N[C@@H](C)C(=O)OC2COC2)Oc2ccccc2)[C@H]1OC(=O)CC (mixture of isomers) [Example 174, (2R,3S,4S,5S)-5-(4-aminopyrrolo[2,1-f][1,2,4]triazin-7-yl)-2-cyano-2-((((((S)-1-(oxetan-3-yloxy)-1-oxopropan-2-yl)amino)(phenoxy)phosphoryl)oxy)methyl) tetrahydrofuran-3,4-diyl dipropionate]",EC50,RSV strain A2; [3],100 nM
same,EC50,DENV2 replicon; [4],8310 nM
same,EC50,HRV16; [5],97 nM
same,EC50,RSV A2; [6],20 nM
